In brackets after ≈: the same amount, converted by molar mass. Records with an inconclusive call do not appear.
Test system: PBS pH 7.4 solubility, LC-UV/MS, 1 h shake
Assay: qHTS Assay for Agonists of the Relaxin Receptor RXFP1: PBS Solubility
Settings: stronger effect = higher value
Source text: The relaxin hormone is involved in the variety of biological functions in normal tissues and diseases. The role of relaxin is well-established in female reproduction and parturition, mammary gland and endometrial development, maintenance of myometrial quiescence during pregnancy. Relaxin signaling through its G protein-coupled receptor (GPCR) RXFP1 results in ECM remodeling through regulation of collagen deposition, cell invasiveness, proliferation and overall tissue homeostasis. […] Recombinant human relaxin (rhRlx) is currently being tested in clinical trials as a protective agent in congestive heart failure, in treating severe preeclampsia, and as an anti-fibrotic agent in systemic sclerosis. The probe and analogs were tested to assess their PBS solubility in this assay. NIH Chemical Genomics Center [NCGC] NIH Molecular Libraries Probe Production Centers Network [MLPCN] MLPCN Grant: R03 MH085705 Assay Submitter (PI): Alexander Agoulnik
1. 8ul of reference and test compound stock solution were added to 392ul 100mM phosphate buffer (pH 7.4) 2. Sample tubes were shaken for 1 hr (1000 rpm) at room temperature 3. Samples were centrifuged (10 min at 12000 rpm) to precipitate un-dissolved particles 4. Supernatants were transferred to new tubes 5. Concentration of the supernatant was determined by LC-UV or LC-MS/MS

Row | SMILES | solubility
1 | CCCCOc1ccccc1C(=O)Nc1ccccc1C(=O)Nc1cccc(S(=O)(=O)C(F)(F)F)c1 | 5.3 µM (≈ 2.76 µg/mL)
2 | CC(C)Oc1ccccc1C(=O)Nc1ccccc1C(=O)Nc1cccc(S(=O)(=O)C(F)(F)F)c1 | 7 µM (≈ 3.55 µg/mL)
3 | COc1ccccc1C(=O)Nc1ccccc1C(=O)Nc1cccc(SC(F)(F)F)c1 | 2.9 µM (≈ 1.29 µg/mL)
4 | CCOc1ccccc1C(=O)Nc1ccccc1C(=O)Nc1cccc(S(=O)(=O)C(F)(F)F)c1 | 1.1 µM (≈ 0.542 µg/mL)
5 | CCOc1ccccc1C(=O)Nc1ccccc1C(=O)Nc1cccc(C(F)(F)F)c1 | 1.7 µM (≈ 0.728 µg/mL)
